Where “and” joins values, the source holds several entries; their conditions need not be identical. Equal values may be shown once.
How the values were obtained:
Homo sapiens = experiment: Mean steady-state pharmacokinetic parammeters for Testosterone evaluated on day 30 following multiple topical administration of Testosterone gel to adult male subjetcs with testosterone levels <= 300ng/dL.; format: ADME, organism-based; set-up: dose 100 mg, dose 50 mg, route topical; settings: in vivo, topical_or_ocular, dosed compound id 32, dosed compound name TESTOSTERONE, gender male, regimen Once daily, tissue Serum; for Cavg: route topical
[1] = Evaluation of excretion and half-life for Testosterone following intramusculary administration of testosterone doses.; format: ADME, organism-based; settings: human, in vivo, im; dosed compound id 32, dosed compound name TESTOSTERONE, gender male, tissue Plasma

In the case of `C[C@]12CC[C@H]3[C@@H](CCC4=CC(=O)CC[C@@]43C)[C@@H]1CC[C@@H]2O` [TESTOSTERONE], the Cavg (Homo sapiens; dose 50 mg) is reported as 365 ng/dL, the Cavg (Homo sapiens; dose 100 mg) is reported as 612 ng/dL and the Cmax (Homo sapiens) is reported as 538 ng/dL and 897 ng/dL. It also gave a half-life [1] of 10 to 100 min.
